Laboratory results reported in patent publication US20020055702A1, “ULTRASOUND-MEDIATED DRUG DELIVERY” (priority 1998, published 2002).
“Also recorded” adds a separate entry of the source.

Test system: corpus cavernosum
Experiment: Intracorporal (cavernosal) pressure in anesthetized male dogs after topical papaverine gel with or without ultrasound
Assay type: in vivo, dog
Excerpt: The invention has reduced to practice and the principles of the invention have been proven by animal experiments. In these experiments, male dogs, one year old, were anesthetized and a midline abdominal incision was made from the xyphoid process down to the symphisis pubis. Proceeding slightly lateral to the left side of the penis, the corpus cavernosum was exposed. Two butterfly needles were placed into one of the corpus cavernosum, one proximally and one distally. The proximal needle was used for intracorporal pressure recordings, while saline was infused through the distal needle. Controlled intracorporal blood pressure (without applying any drugs) was monitored and recorded while saline was perfused at a rate of 1.7 ml/min. Nude mice skin was used to cover the exposed corpora by stitching it to the dog's incised skin. A gel containing 500 mg papaverine (in a base of polyethylene glycol, methyl paraben, butyl paraben, and butylated hydroxytoluene) was applied on the surface of the nude mice skin followed by the application of an ultrasound probe of 1 MHz, pulse mode 30%, at a power level of 2 w/cm^2, for 20 min. In the control experiments, papaverine was applied topically without any ultrasound application and the manometric pressure was monitored. The resulting manometric pressure was compared to the control pressure by measuring the time needed to reach the peak pressure and the time needed for the cavernosal pressure to decline to baseline.
Perfusion of the corpora with saline (with no ultrasound or papaverine application) was performed for 15 sec at a rate of 1.7 ml/min. creating a pressure ranging from 150-220 cm. H2O. The time needed for this pressure to drop to baseline (0-5) was 30 sec. Perfusion of the corpora with saline after applying ultrasound and papaverine reached the same pressure peak in only 5 sec. Moreover, the pressure declined to baseline in 1.5 minutes.

[1] = papaverine gel plus ultrasound versus baseline (saline only)

## COc1ccc(Cc2nccc3cc(OC)c(OC)cc23)cc1OC [papaverine]
Gel with 500 mg papaverine on nude mice skin over corpora, ultrasound 1 MHz, pulse mode 30%, 2 w/cm^2, 20 min, saline perfusion 1.7 ml/min
  time needed to reach the peak pressure: 5 s
Gel with 500 mg papaverine plus ultrasound 1 MHz, pulse mode 30%, 2 w/cm^2, 20 min, saline perfusion 1.7 ml/min
  time needed for the cavernosal pressure to decline to baseline: 1.5 min
Papaverine gel on the skin for 20 min, no ultrasound
  manometric pressure result compared to saline-only control: same results as in the control experiments; also recorded: no greater pressure readings than the no-drug control
Papaverine gel plus ultrasound treatment
  manometric pressure result with ultrasound: rise in pressure which was consistent with erection
[1]
  improvement in the period of time established as a baseline for the establishment of erection: 300%
  persistence of effects relative to the baseline erection parameters: 500%
